± gives the standard deviation of the averaged measurements.
Experiment: TIMS collisional cross section (CCS, N2) of the lipid ion; higher = larger ion cross section
Conditions: ionization mode: positive, one isomer drawn

Row | TIMS collisional cross section (sample type: plasma) [Å²] | TIMS collisional cross section (sample type: Liver) [Å²] | TIMS collisional cross section (sample type: HeLa) [Å²] | Structure (SMILES)
1 | 289.8 | – | – | CC/C=C\C/C=C\C/C=C\C/C=C\C/C=C\C/C=C\CCC(=O)O[C@H](COC(=O)CCCCCCC/C=C\CCCCC)COP(=O)([O-])OCC[N+](C)(C)C [PC 15:1_22:6] (ion (formula + adduct): [C45H76NO8P+H] 1+)
2 | – | 270.8 | – | CCCCC/C=C\C/C=C\C/C=C\C/C=C\CCCCCC(=O)O[C@@H](CO)COC(=O)CCCCCCC/C=C\C/C=C\CCCCC [DG 18:2_22:4_0:0] (ion (formula + adduct): [C43H72O5+NH4] 1+)
3 | – | 323.5 | – | CCCCC/C=C\C/C=C\C/C=C\C/C=C\CCCC(=O)OC[C@@H](COC(=O)CCCCCCC/C=C\CCCCCC)OC(=O)CCCCCCC/C=C\CCCCCCCC [TG 16:1_18:1_20:4] (ion (formula + adduct): [C57H98O6+NH4] 1+)
4 | 327.3 | 327 | 327.7 | CCCCC/C=C\C/C=C\CCCCCCCC(=O)O[C@H](COC(=O)CCCCCCC/C=C\CCCCCCCC)COC(=O)CCCCCCC/C=C\CCCCCCCCC [TG 18:1_18:2_19:1] (ion (formula + adduct): [C58H104O6+NH4] 1+)
5 | 332.5 | – | – | CC/C=C\C/C=C\C/C=C\C/C=C\C/C=C\C/C=C\CCC(=O)OC[C@@H](COC(=O)CCCCCCC/C=C\CCCCCCCC)OC(=O)CCC/C=C\C/C=C\C/C=C\C/C=C\CCCCC [TG 18:1_20:4_22:6] (ion (formula + adduct): [C63H100O6+NH4] 1+)
6 | 207.8 | – | – | CC(C)C(=O)C[C@](C)(O)[C@H]1CC[C@H]2[C@@H]3C[C@H](O)[C@H]4C[C@@H](O)CC[C@]4(C)C3=CC[C@@]21C [24-northornasterol A] (ion (formula + adduct): [C26H42O4+H] 1+)
7 | – | 345.8 | 344.7 | CCCCCCCC/C=C\CCCCCCCCCC(=O)O[C@H](COC(=O)CCCCCCC/C=C\CCCCCCCC)COC(=O)CCCCCCCCCCCCCCCCCCCCC [TG 18:1_20:1_22:0] (ion (formula + adduct): [C63H118O6+NH4] 1+)
8 | 300.5 | 300.3 | 300.7 | CCCC/C=C\CCCCCCCC(=O)OC[C@H](COC(=O)CCCCCCC/C=C\CCCCCC)OC(=O)CCCCCCCCCCCCCC [TG 14:1_15:0_16:1] (ion (formula + adduct): [C48H88O6+NH4] 1+)
9 | – | 265.1 | – | CCCCC/C=C\C/C=C\C/C=C\CCCCCCC(=O)O[C@@H](CO)COC(=O)CCCCCCCCCCCCCCC [DG 16:0_20:3_0:0] (ion (formula + adduct): [C39H70O5+H] 1+)
10 | 334.1 | – | 333.7 | CCCCCCCC/C=C\CCCCCCCCCC(=O)OC[C@@H](COC(=O)CCCCCCCCCCCCCCCCC)OC(=O)CCCCCCC/C=C\CCCCCCCC [TG 18:0_18:1_20:1] (ion (formula + adduct): [C59H110O6+NH4] 1+)
11 | 319.3 | 319.35 ± 0.21 | 319.4 | CCCCCCC/C=C\CCCCCCCC(=O)O[C@@H](COC(=O)CCCCCCC/C=C\CCCCCCCC)COC(=O)CCCCCCCCCCCCCCC [TG 16:0_17:1_18:1] (ion (formula + adduct): [C54H100O6+NH4] 1+)
12 | 232.8 ± 0.42 | 232.95 ± 1.1 | 233.6 | CCCCCCCCCCC/C=C\CCCCC(=O)OC[C@@H](O)COP(=O)([O-])OCC[N+](C)(C)C [LPC 18:1_0:0] (ion (formula + adduct): [C26H52NO7P+H] 1+)
13 | – | – | 338.9 | CCCCC/C=C\C/C=C\C/C=C\C/C=C\CCCCCC(=O)OC[C@@H](COC(=O)CCCCCCC/C=C\CCCCCCCC)OC(=O)CCCCCCCCC/C=C\CCCCCCCC [TG 18:1_20:1_22:4] (ion (formula + adduct): [C63H110O6+NH4] 1+)
14 | 296.1 | – | – | CCCCC/C=C\C/C=C\C/C=C\CCCCCCC(=O)O[C@H](CO/C=C\CCCCCCCCCCCCCCCC)COP(=O)([O-])OCC[N+](C)(C)C [PC P- 18:0@_20:3] (ion (formula + adduct): [C46H86NO7P+H] 1+)
15 | – | 325.3 | – | CC/C=C\C/C=C\C/C=C\C/C=C\C/C=C\C/C=C\CCC(=O)OC[C@@H](COC(=O)CCCCCCCCCCCCCCC)OC(=O)CCCCCCC/C=C\C/C=C\CCCCC [TG 16:0_18:2_22:6] (ion (formula + adduct): [C59H98O6+NH4] 1+)
16 | – | – | 290.4 | CCCCC/C=C/C/C=C/C/C=C/C/C=C/CCCC(=O)O[C@H](COCCCCCCCCCCCCCCCC)COP(=O)([O-])OCC[N+](C)(C)C [PC O- 16:0@_20:4] (ion (formula + adduct): [C44H82NO7P+H] 1+)
17 | – | 340 | – | CCCCCCC/C=C\CCCCCCCC(=O)OC[C@H](COC(=O)CCCCCCCCCCC/C=C\CCCCCCCC)OC(=O)CCCCCCCCC/C=C\CCCCCCCC [TG 17:1_20:1_22:1] (ion (formula + adduct): [C62H114O6+NH4] 1+)

Row | TIMS collisional cross section (sample type: plasma) [Å²] | TIMS collisional cross section (sample type: Liver) [Å²] | TIMS collisional cross section (sample type: HeLa) [Å²] | Structure (SMILES)
18 | – | – | 290.3 | CC/C=C\C/C=C\C/C=C\C/C=C\C/C=C\CCCC(=O)O[C@H](COC(=O)CCC/C=C\C/C=C\C/C=C\C/C=C\CCCCC)COP(=O)([O-])OCC[N+](C)(C)C [PC 20:4_20:5] (ion (formula + adduct): [C48H78NO8P+H] 1+)
19 | 311 | – | – | CCCCC/C=C\C/C=C\CCCCCCCC(=O)OC[C@@H](COC(=O)CCCCCCC/C=C\CCCCC)OC(=O)CCCCCCCCCCCCCCC [TG 15:1_16:0_18:2] (ion (formula + adduct): [C52H94O6+NH4] 1+)
20 | – | 275.5 | – | CCCCC/C=C\C/C=C\CCCCCCCC(=O)OC[C@H](CO)OC(=O)CCCCCCCCCCC/C=C\CCCCCCCC [DG 18:2_22:1_0:0] (ion (formula + adduct): [C43H78O5+NH4] 1+)
21 | – | – | 279.2 | CCCCCCCCCCCCCCCC(=O)O[C@H](COC(=O)CCCCCCCCCCCCC)COP(=O)([O-])OCC[N+](C)(C)C [PC 14:0@_16:0] (ion (formula + adduct): [C38H76NO8P+H] 1+)
22 | – | 308.9 | – | CCCCC/C=C\C/C=C\CCCCCCCC(=O)OC[C@@H](COC(=O)CCCCCCCCCCCCC)OC(=O)CCCCCCCCCCCCCCC [TG 14:0_16:0_18:2] (ion (formula + adduct): [C51H94O6+NH4] 1+)
23 | 327.9 | 328 | – | CCCCC/C=C\C/C=C\C/C=C\C/C=C\CCCCCC(=O)OC[C@@H](COC(=O)CCCCCCCCCCCCCCC)OC(=O)CCCCCCC/C=C\C/C=C\CCCCC [TG 16:0_18:2_22:4] (ion (formula + adduct): [C59H102O6+NH4] 1+)
24 | – | – | 290.7 | CCCCC/C=C\C/C=C\C/C=C\CCCCCCC(=O)O[C@H](CO/C=C\CCCCCCCCCCCCCCCCCC)COP(=O)(O)OCCN [PE P- 20:0@_20:3] (ion (formula + adduct): [C45H84NO7P+H] 1+)
25 | – | – | 315.9 | CCCCCCC/C=C\CCCCCCCC(=O)O[C@@H](COC(=O)CCCCCCC/C=C\CCCCCCCC)COC(=O)CCCCCCCCCCCCCC [TG 15:0_17:1_18:1] (ion (formula + adduct): [C53H98O6+NH4] 1+)
26 | – | 339.9 | – | CCCCC/C=C\C/C=C\C/C=C\C/C=C\CCCC(=O)O[C@H](COC(=O)CCCCCCC/C=C\CCCCCCCC)COC(=O)CCCCCCCCCCC/C=C\CCCCCCCC [TG 18:1_20:4_22:1] (ion (formula + adduct): [C63H110O6+NH4] 1+)
27 | 303.9 ± 0.28 | 302.9 | 303.9 ± 0.85 | CCCC/C=C\CCCCCCCC(=O)OC[C@H](COC(=O)CCCCCCC/C=C\CCCCCC)OC(=O)CCCCCCCCCCCCCCC [TG 14:1_16:0_16:1] (ion (formula + adduct): [C49H90O6+NH4] 1+)
28 | – | – | 276 | CCCCCCCC/C=C\CCCCCCCC(=O)O[C@H](COCCCCCCCCCCCCCCCC)COP(=O)(O)OCCN [PE O- 16:0@_18:1] (ion (formula + adduct): [C39H78NO7P+H] 1+)
29 | – | 257.1 | 257.3 | CC/C=C\C/C=C\C/C=C\CCCCCCCC(=O)O[C@@H](CO)COC(=O)CCCCCCCCCCCCCCC [DG 16:0_18:3_0:0] (ion (formula + adduct): [C37H66O5+NH4] 1+)
30 | – | 315.3 | – | CCCCCCCC/C=C\CCCCCCCC(=O)OC[C@@H](COC(=O)CCCCCCCCCCCCC)OC(=O)CCCCCCC/C=C\CCCCCCCC [TG 14:0_18:1_18:1] (ion (formula + adduct): [C53H98O6+NH4] 1+)
31 | – | 270.8 | 270.8 | CCCCC/C=C\C/C=C\C/C=C\C/C=C\CCCC(=O)O[C@@H](CO)COC(=O)CCCCCCCCCCCCCCCCC [DG 18:0_20:4_0:0] (ion (formula + adduct): [C41H72O5+NH4] 1+)
32 | 292.3 | – | – | CCCCCCCCCCCCCC(=O)OC[C@@H](COC(=O)CCCCCCCCCCCC)OC(=O)CCCCCCCCCCCCC [TG 13:0_14:0_14:0] (ion (formula + adduct): [C44H84O6+NH4] 1+)
33 | – | – | 325.5 | CCCCCCCC/C=C\CCCCCCCC(=O)O[C@@H](COC(=O)CCCCCCC/C=C\CCCCCCCCC)COC(=O)CCCCCCCCCCCCCCC [TG 16:0_18:1_19:1] (ion (formula + adduct): [C56H104O6+NH4] 1+)

Row | Structure (SMILES) | TIMS collisional cross section (sample type: plasma) [Å²] | TIMS collisional cross section (sample type: Liver) [Å²] | TIMS collisional cross section (sample type: HeLa) [Å²]
34 | CCCCCCCCCCCCCC(=O)OC[C@@H](O)COP(=O)([O-])OCC[N+](C)(C)C [LPC 14:0_0:0] (ion (formula + adduct): [C22H46NO7P+H] 1+) | 222.55 ± 0.78 | – | 222.8
35 | CCCCCC/C=C\CCCCCCCC(=O)OC[C@H](COP(=O)(O)OCCN)OC(=O)CCCCCCC/C=C\CCCCCC [PE 16:1_16:1] (ion (formula + adduct): [C37H70NO8P+Na] 1+) | – | – | 266.4
